The results in this text go back to ChEMBL document CHEMBL1932923, “Structure-activity relationships for naturally occurring coumarins as β-secretase inhibitor” (Bioorg Med Chem, 2012).

Calls of active or inactive are those of the source. The calls are words filed in the database; no cut-off is given here. Non-standard residues stand in square brackets, D forms with d. Residues, ends and D or L forms follow the SMILES beside them. Sta = CC(C)C[C@H](N)[C@@H](O)CC(=O)O

What is called Ki is a measure of affinity in units of concentration, obtained from inhibition or displacement. For orientation: IC50 means the concentration that inhibits the measured activity by half.

The target of the first assay is T1, Beta-secretase 1 (Homo sapiens, UniProt P56817). Kind of assay: Inhibition of recombinant human BACE1 assessed as dissociation constant of enzyme-substrate-inhibitor complex using Rh-EVNLDAEFK as substrate by Dixon and Cornish-Bowden plots analysis.
T1 sequence (P56817 whole entry): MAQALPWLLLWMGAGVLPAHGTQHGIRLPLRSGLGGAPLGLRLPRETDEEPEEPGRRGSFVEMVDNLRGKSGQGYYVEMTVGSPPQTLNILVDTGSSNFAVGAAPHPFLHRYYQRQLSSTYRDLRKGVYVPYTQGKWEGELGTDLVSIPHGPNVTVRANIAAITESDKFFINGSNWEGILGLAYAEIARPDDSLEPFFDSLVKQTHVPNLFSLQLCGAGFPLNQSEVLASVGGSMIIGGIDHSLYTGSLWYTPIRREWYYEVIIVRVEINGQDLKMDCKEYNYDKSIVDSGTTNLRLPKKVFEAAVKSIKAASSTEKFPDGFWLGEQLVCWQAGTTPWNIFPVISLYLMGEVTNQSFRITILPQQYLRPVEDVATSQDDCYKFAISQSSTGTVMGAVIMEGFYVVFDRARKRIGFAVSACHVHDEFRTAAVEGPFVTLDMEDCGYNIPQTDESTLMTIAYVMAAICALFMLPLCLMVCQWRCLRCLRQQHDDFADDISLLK
As for `COc1c2occc2c(OC/C=C(\C)CCC=C(C)C)c2ccc(=O)oc12`, the Ki worked out at 13.7 µM.
Consider `CC(C)=CCC/C(C)=C/COc1c2ccoc2cc2oc(=O)ccc12` [BERGAMOTTIN], for which the Ki turned out to be 0.7 µM.
The same measure, in the same setting: as for `CC(C)=CCC/C(C)=C/COc1c2occc2cc2ccc(=O)oc12`, the figure is 61.9 µM.

For another assay, the target named is T1, Beta-secretase 1. Kind of assay: Mixed type inhibition of recombinant human BACE1 using Rh-EVNLDAEFK as substrate by Dixon and Cornish-Bowden plots analysis.
Consider `COc1c2occc2c(OC/C=C(\C)CCC=C(C)C)c2ccc(=O)oc12`, for which the inhibition result was “Active”.
On to `CC(C)=CCC/C(C)=C/COc1c2ccoc2cc2oc(=O)ccc12` [BERGAMOTTIN], for which the inhibition entry was “Active”.

For the next assay, the target named is T1, Beta-secretase 1. Kind of assay: Non-competitive inhibition of recombinant human BACE1 using Rh-EVNLDAEFK as substrate by Dixon and Cornish-Bowden plots analysis.
For the compound `CC(C)=CCC/C(C)=C/COc1c2occc2cc2ccc(=O)oc12`, the inhibition result was “Active”.

The target of another assay is T1, Beta-secretase 1. Kind of assay: Inhibition of recombinant human BACE1 using Rh-EVNLDAEFK as substrate after 60 mins by fluorescence quenching assay.
For `CC(C)(O)[C@H](O)COc1c2ccoc2cc2oc(=O)ccc12` [OXYPEUCEDANIN HYDRATE], the half-inhibitory concentration (IC50) is more than 500 µM.
Consider `O=c1ccc2cc3ccoc3c(O)c2o1` [XANTHOTOXOL], for which the IC50 was more than 500 µM.
As to `O=c1ccc2ccccc2o1` [COUMARIN], the IC50 was more than 500 µM.
On the same count and under the same terms, as for `CC(C)=CCOc1c2ccoc2c(O)c2oc(=O)ccc12`, the figure is more than 500 µM.
Same read-out and setting: next, `C/C=C(\C)C(=O)O[C@H]1Cc2cc3ccc(=O)oc3cc2OC1(C)C` [DECURSINOL TIGLATE]: more than 500 µM; `CC(C)=CCc1cc2ccc(=O)oc2cc1O` [DEMETHYLSUBEROSIN]: 413 µM.
The same measure, in the same setting: next, `CC(C)(O)[C@@H]1Cc2c(ccc3ccc(=O)oc23)O1` [COLUMBIANETIN]: more than 500 µM; `CC(C)=CCC/C(C)=C/COc1c2ccoc2c(O)c2oc(=O)ccc12`: more than 500 µM; `CC1(C)C=Cc2cc3ccc(=O)oc3cc2O1` [XANTHYLETIN]: more than 500 µM.
As for `O=c1ccc2c(O)c3ccoc3cc2o1` [BERGAPTOL], the IC50 was more than 500 µM.
Still for that read-out and setting: next, `COc1ccc2ccc(=O)oc2c1CC=C(C)C` [OSTHOLE]: more than 500 µM; `COc1c2ccoc2c(OCC=C(C)C)c2oc(=O)ccc12` [PHELLOPTERIN]: 143 µM; `COc1ccc2ccc(=O)oc2c1` [HERNIARIN]: more than 500 µM.
On the same count and under the same terms, as for `O=c1ccc2c(O)c3ccoc3c(O)c2o1`, the figure is more than 500 µM; as for `CC1(C)C=Cc2c(ccc3ccc(=O)oc23)O1` [SESALIN], more than 500 µM.
On the same count and under the same terms, next, `CC1(C)Oc2ccc3ccc(=O)oc3c2CC1O` (centres undefined) [LOMATIN]: more than 500 µM.
In the case of `COc1c2occc2c(OCC=C(C)C)c2ccc(=O)oc12` [KINIDILIN], the IC50 came out at 344 µM.
Same read-out and setting: next, `O=c1ccc2cc3ccoc3cc2o1` [PSORALEN]: more than 500 µM.
The same measure, in the same setting: as for `COc1cc2ccc(=O)oc2cc1OC` [SCOPARONE], the figure is more than 500 µM.
The same measure, in the same setting: as for `COc1c2ccoc2c(OC/C=C(\C)CCC=C(C)C)c2oc(=O)ccc12`, the figure is 11.1 µM; as for `COc1c2ccoc2c(OC[C@H]2OC2(C)C)c2oc(=O)ccc12` [BYAKANGELICOL], 105 µM.
As for `COc1c2ccoc2c(O)c2oc(=O)ccc12`, the IC50 is more than 500 µM.
On the same count and under the same terms, next, `O=c1ccc2ccc3occc3c2o1` [ANGELICIN]: more than 500 µM; `CC(C)=CCc1c(O)ccc2ccc(=O)oc12` [OSTHENOL]: more than 500 µM.
Regarding `CC(C)=CCOc1c2occc2cc2ccc(=O)oc12` [PENTOSALEN], the IC50 was found to be 91.8 µM.
As to `CC1(C)O[C@@H]1COc1c2occc2cc2ccc(=O)oc12` [HERACLENIN], the IC50 worked out at 444 µM.
Still for that read-out and setting: as for `COc1c2occc2cc2ccc(=O)oc12` [METHOXSALEN], the figure is more than 500 µM; as for `CC(C)=CCC/C(C)=C/COc1ccc2ccc(=O)oc2c1` [AURAPTENE], 345 µM; as for `COc1c2ccoc2cc2oc(=O)ccc12` [BERGAPTEN], more than 500 µM.
Still for that read-out and setting: next, `COc1cc2oc(=O)ccc2cc1CC=C(C)C` [SUBEROSIN]: more than 500 µM; `CC1(C)Oc2cc3oc(=O)ccc3cc2C[C@@H]1O` [DECURSINOL]: more than 500 µM; `COc1c2occc2c(OC/C=C(\C)CCC=C(C)C)c2ccc(=O)oc12`: 9.9 µM.
As to `O=c1ccc2ccc(O)cc2o1` [UMBELLIFERONE], the IC50 was more than 500 µM.
Still for that read-out and setting: next, `COc1c2ccoc2c(OC)c2oc(=O)ccc12` [ISOPIMPINELLIN]: more than 500 µM; `CC1(C)CCc2cc3ccc(=O)oc3cc2O1` [DIHYDROXANTHYLETIN]: more than 500 µM; `CC(C)=CC(=O)O[C@H]1Cc2cc3ccc(=O)oc3cc2OC1(C)C` [DECURSIN]: more than 500 µM.
Same read-out and setting: as for `CC(C)=CCOc1ccc2ccc(=O)oc2c1` [7-PRENYLOXYCOUMARIN], the figure is more than 500 µM; as for `CC[C@H](C)[C@H](NC(=O)[C@H](CCC(=O)O)NC(=O)[C@H](CCC(=O)O)NC(=O)[C@@H](NC(=O)[C@@H](N)CCCCN)[C@@H](C)O)C(=O)N[C@@H](CO)C(=O)N[C@@H](CCC(=O)O)C(=O)N[C@H](C(=O)N[C@@H](CC(N)=O)C(=O)N[C@@H](CC(C)C)[C@@H](O)CC(=O)N[C@H](C(=O)N[C@@H](C)C(=O)N[C@@H](CCC(=O)O)C(=O)N[C@@H](Cc1ccccc1)C(=O)O)C(C)C)C(C)C` (H-KTEEISEVN[Sta]VAEF-OH), 0.2 µM; as for `CC(C)=CCC/C(C)=C/COc1c2ccoc2cc2oc(=O)ccc12` [BERGAMOTTIN], 32.2 µM.
On the same count and under the same terms, as for `CC1(C)O[C@H]1COc1c2ccoc2cc2oc(=O)ccc12` [OXYPEUCEDANIN], the figure is 359 µM; as for `CC(C)(O)[C@@H]1Cc2cc3ccc(=O)oc3cc2O1` [MARMESIN], more than 500 µM.
Take `COc1c2ccoc2c(OC[C@@H](O)C(C)(C)O)c2oc(=O)ccc12` [BYAKANGELICIN]: the half-maximal inhibitory concentration (IC50) stood at 220 µM.
On the same count and under the same terms, as for `CC(C)(O)[C@H](O)COc1c2occc2cc2ccc(=O)oc12` [HERACLENOL], the figure is more than 500 µM; as for `CC(C)=CCC/C(C)=C/COc1c2occc2cc2ccc(=O)oc12`, 20.4 µM; as for `CC(C)=CCOc1c2ccoc2c(OCC=C(C)C)c2oc(=O)ccc12`, more than 500 µM.

A further assay concerns the target T1, Beta-secretase 1. Kind of assay: Inhibition of recombinant human BACE1 assessed as dissociation constant of enzyme-inhibitor complex using Rh-EVNLDAEFK as substrate by Dixon and Cornish-Bowden plots analysis.
Turning to `COc1c2occc2c(OC/C=C(\C)CCC=C(C)C)c2ccc(=O)oc12`, the inhibition constant Ki was 103 µM.
On the same count and under the same terms, next, `CC(C)=CCC/C(C)=C/COc1c2ccoc2cc2oc(=O)ccc12` [BERGAMOTTIN]: 34.8 µM; `CC(C)=CCC/C(C)=C/COc1c2occc2cc2ccc(=O)oc12`: 61.6 µM.
